Data published in ChEMBL document CHEMBL1201862, “PubChem BioAssay data set” (2004).
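Values below derive from 48-hour exposures of cells grown in 96-well plates, with endpoints linearly interpolated between the two concentrations bracketing the appropriate inhibition level. GI50 marks 50% less growth.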 Calls of active or inactive are those of the source. Cut-off read from the data, not from the text of the source: active = GI50 up to about 1.1 µM and inactive = higher.

Experiments:
Assay in all cases: NCI tumour cell line growth inhibition, 48 h
SF-539 = system: SF-539
OVCAR-5 = system: OVCAR-5
DLD-1 = system: DLD-1
NCI-H226 = system: NCI-H226
SF-268 = system: SF-268
SK-MEL-5 = system: SK-MEL-5
XF498 = system: XF498
A549 = system: A549
SK-MEL-28 = system: SK-MEL-28
CAKI-1 = system: CAKI-1
K562 = system: K562
A498 = system: A498
SW-620 = system: SW-620
KM-20L2 = system: KM-20L2
786-0 = system: 786-0
TK-10 = system: TK-10
SNB-19 = system: SNB-19
DMS-273 = system: DMS-273
SR = system: SR
HOP-18 = system: HOP-18
IGROV-1 = system: IGROV-1
COLO 205 = system: COLO 205
LOX IMVI = system: LOX IMVI
SNB-75 = system: SNB-75
SNB-78 = system: SNB-78
RPMI-8226 = system: RPMI-8226
NCI-H522 = system: NCI-H522
ACHN = system: ACHN
HL-60 = system: HL-60
OVCAR-3 = system: OVCAR-3
SF-295 = system: SF-295
HOP-62 = system: HOP-62
SK-OV-3 = system: SK-OV-3
HOP-92 = system: HOP-92
NCI-H23 = system: NCI-H23
UACC-62 = system: UACC-62
UO-31 = system: UO-31
M19-MEL = system: M19-MEL
Malme-3M = system: Malme-3M
SK-MEL-2 = system: SK-MEL-2
CCRF-CEM = system: CCRF-CEM
MOLT-4 = system: MOLT-4
UACC-257 = system: UACC-257
HCC 2998 = system: HCC 2998
HCT-116 = system: HCT-116
SN12C = system: SN12C
EKVX = system: EKVX
OVCAR-4 = system: OVCAR-4
HT-29 = system: HT-29
U-251 = system: U-251
LXFL 529 = system: LXFL 529
KM12 = system: KM12
NCI-H460 = system: NCI-H460
HCT-15 = system: HCT-15
M14 = system: M14
RXF 393 = system: RXF 393
RXF 631 = system: RXF 631
OVCAR-8 = system: OVCAR-8
DMS-114 = system: DMS-114

`O=C1CCCC[C@H]1[C@H]1CCC[C@@H]([C@H]2CCCCC2=O)C1=O` was tested. Which GI50 (SF-539) did it give?
Its GI50 is > 100 µM (inactive).

And the GI50 (OVCAR-5)?
The GI50 was > 100 µM (inactive).

What about the GI50 (DLD-1) of the same compound?
Its GI50 is > 100 µM (inactive).

And the GI50 (NCI-H226)?
Its GI50 is > 100 µM (inactive).

What about the GI50 (SF-268) of the same compound?
Its GI50 is > 100 µM (inactive).

What about the GI50 (SK-MEL-5) of the same compound?
Its GI50 is > 100 µM (inactive).

And the GI50 (XF498)?
Its GI50 is > 100 µM (inactive).

What about the GI50 (A549) of the same compound?
The GI50 was > 100 µM (inactive).

And the GI50 (SK-MEL-28)?
Its GI50 is > 100 µM (inactive).

What about the GI50 (CAKI-1) of the same compound?
Its GI50 is > 100 µM (inactive).

And the GI50 (K562)?
Its GI50 is > 100 µM (inactive).

What about the GI50 (A498) of the same compound?
Its GI50 is > 100 µM (inactive).

What about the GI50 (SW-620) of the same compound?
Its GI50 is > 100 µM (inactive).

And the GI50 (KM-20L2)?
The GI50 was > 100 µM (inactive).

And the GI50 (786-0)?
The GI50 was > 100 µM (inactive).

And the GI50 (TK-10)?
Its GI50 is > 100 µM (inactive).

What about the GI50 (SNB-19) of the same compound?
The GI50 was > 100 µM (inactive).

And the GI50 (DMS-273)?
The GI50 was > 100 µM (inactive).

And the GI50 (SR)?
Its GI50 is > 100 µM (inactive).

What about the GI50 (HOP-18) of the same compound?
Its GI50 is > 100 µM (inactive).

And the GI50 (IGROV-1)?
Its GI50 is > 100 µM (inactive).

And the GI50 (COLO 205)?
The GI50 was > 100 µM (inactive).

What about the GI50 (LOX IMVI) of the same compound?
Its GI50 is > 100 µM (inactive).

What about the GI50 (SNB-75) of the same compound?
The GI50 was > 100 µM (inactive).

And the GI50 (SNB-78)?
The GI50 was 3.44 µM (inactive).

What about the GI50 (RPMI-8226) of the same compound?
The GI50 was > 100 µM (inactive).

And the GI50 (NCI-H522)?
Its GI50 is > 100 µM (inactive).

And the GI50 (ACHN)?
The GI50 was > 100 µM (inactive).

And the GI50 (HL-60)?
The GI50 was > 100 µM (inactive).

What about the GI50 (OVCAR-3) of the same compound?
The GI50 was > 100 µM (inactive).

And the GI50 (SF-295)?
Its GI50 is > 100 µM (inactive).

What about the GI50 (HOP-62) of the same compound?
The GI50 was > 100 µM (inactive).

And the GI50 (SK-OV-3)?
Its GI50 is > 100 µM (inactive).

And the GI50 (HOP-92)?
Its GI50 is > 100 µM (inactive).

And the GI50 (NCI-H23)?
The GI50 was > 100 µM (inactive).

What about the GI50 (UACC-62) of the same compound?
Its GI50 is > 100 µM (inactive).

What about the GI50 (UO-31) of the same compound?
The GI50 was > 100 µM (inactive).

What about the GI50 (M19-MEL) of the same compound?
Its GI50 is > 100 µM (inactive).

And the GI50 (Malme-3M)?
Its GI50 is > 100 µM (inactive).

What about the GI50 (SK-MEL-2) of the same compound?
The GI50 was > 100 µM (inactive).

What about the GI50 (CCRF-CEM) of the same compound?
The GI50 was > 100 µM (inactive).

And the GI50 (MOLT-4)?
The GI50 was > 100 µM (inactive).

What about the GI50 (UACC-257) of the same compound?
Its GI50 is > 100 µM (inactive).

And the GI50 (HCC 2998)?
Its GI50 is > 100 µM (inactive).

And the GI50 (HCT-116)?
The GI50 was > 100 µM (inactive).

What about the GI50 (SN12C) of the same compound?
The GI50 was > 100 µM (inactive).

And the GI50 (EKVX)?
The GI50 was > 100 µM (inactive).

And the GI50 (OVCAR-4)?
The GI50 was > 100 µM (inactive).

What about the GI50 (HT-29) of the same compound?
The GI50 was > 100 µM (inactive).

What about the GI50 (U-251) of the same compound?
The GI50 was > 100 µM (inactive).

And the GI50 (LXFL 529)?
The GI50 was > 100 µM (inactive).

And the GI50 (KM12)?
The GI50 was > 100 µM (inactive).

What about the GI50 (NCI-H460) of the same compound?
The GI50 was > 100 µM (inactive).

And the GI50 (HCT-15)?
Its GI50 is over 100 µM.

And the GI50 (M14)?
Its GI50 is > 100 µM (inactive).

What about the GI50 (RXF 393) of the same compound?
The GI50 was > 100 µM (inactive).

And the GI50 (RXF 631)?
Its GI50 is > 100 µM (inactive).

For `CN(C)CC1(C)CC/C(=C\c2ccccc2)C1=O` (stereo unspecified), which GI50 (SF-539) is on record?
Its GI50 is > 100 µM (inactive).

And the GI50 (OVCAR-5)?
The GI50 was > 100 µM (inactive).

What about the GI50 (DLD-1) of the same compound?
Its GI50 is > 100 µM (inactive).

What about the GI50 (NCI-H226) of the same compound?
The GI50 was > 100 µM (inactive).

What about the GI50 (SF-268) of the same compound?
The GI50 was > 100 µM (inactive).

And the GI50 (SK-MEL-5)?
The GI50 was > 100 µM (inactive).

What about the GI50 (XF498) of the same compound?
Its GI50 is > 100 µM (inactive).

And the GI50 (A549)?
The GI50 was > 100 µM (inactive).

And the GI50 (SK-MEL-28)?
Its GI50 is > 100 µM (inactive).

And the GI50 (CAKI-1)?
The GI50 was > 100 µM (inactive).

And the GI50 (K562)?
The GI50 was > 100 µM (inactive).

And the GI50 (A498)?
The GI50 was > 100 µM (inactive).

And the GI50 (SW-620)?
The GI50 was 63.1 µM (inactive).

And the GI50 (KM-20L2)?
The GI50 was > 100 µM (inactive).

And the GI50 (786-0)?
Its GI50 is > 100 µM (inactive).

What about the GI50 (TK-10) of the same compound?
Its GI50 is > 100 µM (inactive).

And the GI50 (SNB-19)?
The GI50 was 44.1 µM (inactive).

And the GI50 (DMS-273)?
Its GI50 is > 100 µM (inactive).

What about the GI50 (HOP-18) of the same compound?
The GI50 was > 100 µM (inactive).

And the GI50 (IGROV-1)?
The GI50 was > 100 µM (inactive).

And the GI50 (COLO 205)?
The GI50 was > 100 µM (inactive).

What about the GI50 (LOX IMVI) of the same compound?
Its GI50 is > 100 µM (inactive).

And the GI50 (OVCAR-8)?
Its GI50 is > 100 µM (inactive).

What about the GI50 (SNB-75) of the same compound?
Its GI50 is > 100 µM (inactive).

What about the GI50 (SNB-78) of the same compound?
The GI50 was > 100 µM (inactive).

What about the GI50 (RPMI-8226) of the same compound?
The GI50 was 27.5 µM (inactive).

And the GI50 (NCI-H522)?
Its GI50 is 39.8 µM (inactive).

And the GI50 (ACHN)?
The GI50 was > 100 µM (inactive).

And the GI50 (DMS-114)?
The GI50 was > 100 µM (inactive).

And the GI50 (OVCAR-3)?
Its GI50 is > 100 µM (inactive).

And the GI50 (SF-295)?
The GI50 was > 100 µM (inactive).

And the GI50 (HOP-62)?
The GI50 was > 100 µM (inactive).

What about the GI50 (HOP-92) of the same compound?
The GI50 was > 100 µM (inactive).

And the GI50 (NCI-H23)?
The GI50 was > 100 µM (inactive).

And the GI50 (UACC-62)?
Its GI50 is > 100 µM (inactive).

What about the GI50 (UO-31) of the same compound?
The GI50 was > 100 µM (inactive).

And the GI50 (M19-MEL)?
The GI50 was > 100 µM (inactive).

What about the GI50 (Malme-3M) of the same compound?
The GI50 was > 100 µM (inactive).

What about the GI50 (SK-MEL-2) of the same compound?
The GI50 was > 100 µM (inactive).

What about the GI50 (CCRF-CEM) of the same compound?
The GI50 was 43.1 µM (inactive).

What about the GI50 (MOLT-4) of the same compound?
The GI50 was > 100 µM (inactive).

And the GI50 (UACC-257)?
The GI50 was > 100 µM (inactive).

And the GI50 (HCC 2998)?
The GI50 was > 100 µM (inactive).

And the GI50 (HCT-116)?
The GI50 was > 100 µM (inactive).

What about the GI50 (SN12C) of the same compound?
The GI50 was > 100 µM (inactive).

What about the GI50 (OVCAR-4) of the same compound?
The GI50 was > 100 µM (inactive).

And the GI50 (HT-29)?
The GI50 was > 100 µM (inactive).

And the GI50 (U-251)?
The GI50 was > 100 µM (inactive).

What about the GI50 (KM12) of the same compound?
Its GI50 is > 100 µM (inactive).

What about the GI50 (NCI-H460) of the same compound?
Its GI50 is > 100 µM (inactive).

And the GI50 (HCT-15)?
Its GI50 is 63 µM.

And the GI50 (M14)?
Its GI50 is > 100 µM (inactive).

And the GI50 (RXF 393)?
Its GI50 is > 100 µM (inactive).

What about the GI50 (RXF 631) of the same compound?
Its GI50 is 49 µM (inactive).
